pIC50: −log10 of the molar value.
Each compound was assayed against T1, Human neutrophil elastase (Homo sapiens, UniProt P08246) (assay: Human Neutrophil Elastase Assay). Settings: Neutrophil Elastase assay; substrate MeOSuc-Ala-Ala-Pro-Val-AMC 250 μM; 15 min preincubation, 60 min incubation at room temperature; pH 7.5.
T1 construct: purchased Calbiochem 324681
T1 sequence (P08246 30-267): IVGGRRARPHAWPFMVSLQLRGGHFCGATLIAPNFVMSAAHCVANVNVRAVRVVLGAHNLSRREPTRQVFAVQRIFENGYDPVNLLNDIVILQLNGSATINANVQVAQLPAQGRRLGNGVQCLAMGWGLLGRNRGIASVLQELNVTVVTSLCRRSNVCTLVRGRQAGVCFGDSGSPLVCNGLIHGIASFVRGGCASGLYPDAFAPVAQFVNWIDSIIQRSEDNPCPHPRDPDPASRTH
Assay type: biochemical
Experimental: Human Neutrophil Elastase Assay
All other materials were of the highest grade commercially available.
The following buffers were used: Compound buffer: 100 mM Tris, 500 mM NaCl, adjusted to pH 7.5; Assay buffer: 100 mM Tris, 500 mM NaCl, adjusted to pH 7.5, containing 0.01% BSA.
Assay conditions: Test compounds were prediluted in DMSO and subsequently in compound buffer (5% DMSO final). […] After inactivation of the enzyme, fluorescence intensities were measured at 380 nm excitation and 460 nm emission wavelengths.
Each plate contains wells with a high value control (DMSO+enzyme+substrate) and wells with a low value control (DMSO+inactivated enzyme+substrate). […] Means of low values were taken as 0%, means of high values as 100%.

Row | pIC50 | SMILES
1 | > 9.00 | Cc1c(-c2cccc(C(F)(F)F)c2)c(=O)c(C(=O)NCc2ccc(S(C)(=O)=O)cc2)cn1[C@H](C)c1ccc(C#N)cc1 [Example 2.5A]
2 | 7.98 | Cc1c(-c2cccc(C(F)(F)F)c2)c(=O)c(C(=O)N[C@@H]2CCNC2=O)cn1Cc1ccc(C#N)cc1 [Example 1.59]
3 | 7.98 | Cc1c(-c2cccc(C(F)(F)F)c2)c(=O)c(C(=O)NC2CCC(=O)N(C)C2)cn1Cc1ccc(C#N)cc1 (centres unmarked) [Example 1.62]
4 | 8.85 | Cc1c(-c2cccc(C(F)F)c2)c(=O)c(C(=O)NC2CCNC2=O)cn1C(C)c1ccc(C#N)cc1 (centres unmarked) [Example 8.12]
5 | 8.12 | Cc1c(-c2ccnc(C(F)(F)F)c2)c(=O)c(C(=O)NCCO)cn1C(C)c1ccc(C#N)cc1 (centres unmarked) [Example 9.9]
6 | 7.69 | CNC(=O)c1cn(Cc2ccc(C#N)cc2F)c(C)c(-c2cccc(C(F)(F)F)c2)c1=O [Example 3.6]
7 | 8.62 | Cc1c(-c2cccc(C(F)(F)F)c2)c(=O)c(C(=O)NC2CNC(=O)C2)cn1C(C)c1ccc(C#N)cc1 (centres unmarked) [Example 7.7]
8 | 7.52 | Cc1c(-c2cccc(C(F)(F)F)c2)c(=O)c(C(=O)NCCN(C)C)cn1Cc1ccc(C#N)cc1 [Example 1.6]
9 | 8.01 | Cc1c(-c2ccnc(C(F)(F)F)c2)c(=O)c(C(=O)NCCF)cn1C(C)c1ccc(C#N)cc1 (centres unmarked) [Example 9.44]
10 | 7.65 | COC(=O)CNC(=O)c1cn(Cc2ccc(C#N)cc2)c(C)c(-c2cccc(C(F)(F)F)c2)c1=O [Example 1.63]
11 | 7.86 | CNC(=O)c1cn(C2CCc3cc(C#N)ccc32)c(C)c(-c2cccc(C(F)(F)F)c2)c1=O (centres unmarked) [Example 37, 1-(5-Cyano-indan-1-yl)-6-methyl-4-oxo-5-(3-trifluoromethyl-phenyl)-1,4-dihydro-pyridine-3-carboxylic acid methylamide]
12 | 8.60 | Cc1c(-c2cccc(C(F)(F)F)c2)c(=O)c(C(=O)NCC#N)cn1C(C)c1ccc(C#N)cn1 (centres unmarked) [Example 47.20]
13 | 7.08 | Cc1c(-c2cccc(C(F)(F)F)c2)c(=O)c(C(=O)NCC2(O)CCN(C)CC2)cn1Cc1ccc(C#N)cc1 [Example 1.8]
14 | 8.77 | CCOCCNC(=O)c1cn(C(C)c2ccc(C#N)cc2)c(C)c(-c2cccc(C(F)F)c2)c1=O (centres unmarked) [Example 8.24]
15 | 8.35 | CCNC(=O)c1cn(C(C)c2ccc(C#N)cn2)c(C)c(-c2cccc(C(F)(F)F)c2)c1=O (centres unmarked) [Example 17, 1-[1-(5-Cyano-pyridin-2-yl)-ethyl]-6-methyl-4-oxo-5-(3-trifluoromethyl-phenyl)-1,4-dihydro-pyridine-3-carboxylic acid ethylamide]
16 | > 9.00 | Cc1c(-c2cccc(C(F)F)c2)c(=O)c(C(=O)NCc2ccc(S(C)(=O)=O)cc2)cn1C(C)c1ccc(C#N)cc1 (single isomer, unassigned) [Example 11A]
17 | 7.80 | Cc1c(-c2cccc(C(F)(F)F)c2)c(=O)c(C(=O)NCC2CCN(C(=O)CN(C)C)CC2)cn1Cc1ccc(C#N)cc1 [Example 1.7]
18 | 8.85 | Cc1c(-c2cccc(C(F)(F)F)c2)c(=O)c(C(=O)NCc2ccncc2)cn1Cc1ccc(C#N)cc1 [Example 1.50]
19 | 8.16 | Cc1c(-c2cccc(C(F)(F)F)c2)c(=O)c(C(=O)NCc2ccc(S(C)(=O)=O)cc2)cn1Cc1ccc(Cl)cc1 [Example 2.7]
20 | 8.43 | Cc1c(-c2cccc(C(F)(F)F)c2)c(=O)c(C(=O)NCc2ccnn2C)cn1Cc1ccc(C#N)cc1 [Example 1.33]
21 | 7.77 | Cc1c(-c2cccc(C(F)(F)F)c2)c(=O)c(C(=O)NCCn2cccn2)cn1Cc1ccc(C#N)cc1 [Example 1.30]
22 | 7.43 | Cc1c(-c2ccnc(C(F)(F)F)c2)c(=O)c(C(=O)NCC(C)(C)O)cn1C(C)c1ccc(C#N)cc1 (centres unmarked) [Example 9.63]

Row | pIC50 | SMILES
23 | 7.73 | Cc1c(-c2ccnc(C(F)(F)F)c2)c(=O)c(C(=O)NCC(=O)OC(C)C)cn1C(C)c1ccc(C#N)cc1 (centres unmarked) [Example 9.31]
24 | 8.00 | Cc1c(-c2ccnc(C(F)(F)F)c2)c(=O)c(C(=O)NC2COC2)cn1C(C)c1ccc(C#N)cc1 (centres unmarked) [Example 9.17]
25 | 8.68 | Cc1c(-c2cccc(C(F)(F)F)c2)c(=O)c(C(=O)NCc2ccc(S(C)(=O)=O)cn2)cn1Cc1ccc(Cl)cc1 [Example 4.2]
26 | 8.55 | Cc1nnc(CNC(=O)c2cn(Cc3ccc(C#N)cc3S(C)(=O)=O)c(C)c(-c3cccc(C(F)(F)F)c3)c2=O)o1 [Example 22]
27 | 7.44 | Cc1c(-c2cccc(C(F)(F)F)c2)c(=O)c(C(=O)NCC[N+](C)(C)C)cn1Cc1ccc(C#N)cc1 [Example 12.1, (2-{[1-(4-Cyano-benzyl)-6-methyl-4-oxo-5-(3-trifluoromethyl-phenyl)-1,4-dihydro-pyridine-3-carbonyl]-amino}-ethyl)-trimethyl-ammonium chloride]
28 | 8.92 | Cc1c(-c2cccc(C(F)(F)F)c2)c(=O)c(C(=O)NCCS(C)(=O)=O)cn1C(C)c1ccc(C#N)cc1 (centres unmarked) [Example 7.6]
29 | 7.23 | Cc1c(-c2ccnc(C(F)(F)F)c2)c(=O)c(C(=O)NC2CC3CCC2O3)cn1C(C)c1ccc(C#N)cc1 (centres unmarked) [Example 9.39]
30 | 8.60 | Cc1c(-c2cncc(C(F)(F)F)c2)c(=O)c(C(=O)NCc2ccc(S(C)(=O)=O)cc2)cn1Cc1ccc(C#N)cc1 [Example 6.13]
31 | 6.28 | CNC(=O)c1cn(C(C)c2ccc(C#N)cc2)c(C)c(-c2cccc(C(F)F)c2)c1=O (single isomer, unassigned) [Example 8B]
32 | 8.49 | Cc1c(-c2cccc(C(F)F)c2)c(=O)c(C(=O)NCCCCO)cn1C(C)c1ccc(C#N)cc1 (centres unmarked) [Example 8.13]
33 | 7.64 | COC(=O)C(C)NC(=O)c1cn(C(C)c2ccc(C#N)cc2)c(C)c(-c2ccnc(C(F)(F)F)c2)c1=O (centres unmarked) [Example 9.33]
34 | 8.41 | Cc1c(-c2ccnc(C(F)(F)F)c2)c(=O)c(C(=O)NCC[S+](C)[O-])cn1C(C)c1ccc(C#N)cc1 (centres unmarked) [Example 9.3]
35 | 7.97 | CCS(=O)(=O)c1cc(C#N)ccc1Cn1cc(C(=O)NC)c(=O)c(-c2cccc(C(F)(F)F)c2)c1C [Example 26]
36 | 8.37 | Cc1c(-c2cccc(C(F)F)c2)c(=O)c(C(=O)NCCN(C)C)cn1C(C)c1ccc(C#N)cc1 (centres unmarked) [Example 8.11]
37 | > 9.00 | Cc1c(-c2ccnc(C(F)(F)F)c2)c(=O)c(C(=O)NCc2ccc(S(C)(=O)=O)cc2)cn1Cc1ccc(C#N)cc1 [Example 6.11]
38 | 8.34 | Cc1c(-c2ccnc(C(F)(F)F)c2)c(=O)c(C(=O)NC2CCN(C)C2=O)cn1C(C)c1ccc(C#N)cc1 (centres unmarked) [Example 9.12]
39 | 7.50 | Cc1c(-c2cccc(C(F)(F)F)c2)c(=O)c(C(=O)NCC2COCCO2)cn1Cc1ccc(C#N)cc1 (centres unmarked) [Example 1.35]
40 | 8.31 | Cc1c(-c2cccc(C(F)(F)F)c2)c(=O)c(C(=O)NC2CCCNC2=O)cn1Cc1ccc(C#N)cc1 (centres unmarked) [Example 1.55]
41 | 7.89 | COCCCNC(=O)c1cn(Cc2ccc(C#N)cc2)c(C)c(-c2cccc(C(F)(F)F)c2)c1=O [Example 1.3]
42 | > 9.00 | Cc1c(-c2cccc(C(F)(F)F)c2)c(=O)c(C(=O)NCc2ccc(S(C)(=O)=O)cn2)cn1Cc1ccc(C#N)cc1 [Example 4.1, 1-(4-cyano-benzyl)-6-methyl-4-oxo-5-(3-trifluoromethyl-phenyl)-1,4-dihydro-pyridine-3-carboxylic acid (5-methanesulfonyl-pyridin-2-ylmethyl)-amide]
43 | 7.33 | Cc1c(-c2cccc(C(F)(F)F)c2)c(=O)c(C(=O)N[C@H]2CC[C@H](O)CC2)cn1Cc1ccc(C#N)cc1 [Example 1.27]

Same assay, conditions: eutomer versus distomer of the racemic example

Row | neutrophil elastase inhibitory potency, one enantiomer compared with the other | SMILES
44 | much more active | Cc1c(-c2cccc(C(F)(F)F)c2)c(=O)c(C(=O)NCc2ccc(S(C)(=O)=O)cc2)cn1[C@H](C)c1ccc(C#N)cc1 [Example 2.5A]
